Like-named read-outs stand apart in the source and are kept apart here.

As a reminder, the IC50 is the concentration that inhibits the measured activity by half.

In one assay the target is T1, IKKε (Homo sapiens, UniProt Q14164).
T1 construct: His-tag; made in house; host or cells: Sf9 insect cells
T1 sequence (Q14164 1-716): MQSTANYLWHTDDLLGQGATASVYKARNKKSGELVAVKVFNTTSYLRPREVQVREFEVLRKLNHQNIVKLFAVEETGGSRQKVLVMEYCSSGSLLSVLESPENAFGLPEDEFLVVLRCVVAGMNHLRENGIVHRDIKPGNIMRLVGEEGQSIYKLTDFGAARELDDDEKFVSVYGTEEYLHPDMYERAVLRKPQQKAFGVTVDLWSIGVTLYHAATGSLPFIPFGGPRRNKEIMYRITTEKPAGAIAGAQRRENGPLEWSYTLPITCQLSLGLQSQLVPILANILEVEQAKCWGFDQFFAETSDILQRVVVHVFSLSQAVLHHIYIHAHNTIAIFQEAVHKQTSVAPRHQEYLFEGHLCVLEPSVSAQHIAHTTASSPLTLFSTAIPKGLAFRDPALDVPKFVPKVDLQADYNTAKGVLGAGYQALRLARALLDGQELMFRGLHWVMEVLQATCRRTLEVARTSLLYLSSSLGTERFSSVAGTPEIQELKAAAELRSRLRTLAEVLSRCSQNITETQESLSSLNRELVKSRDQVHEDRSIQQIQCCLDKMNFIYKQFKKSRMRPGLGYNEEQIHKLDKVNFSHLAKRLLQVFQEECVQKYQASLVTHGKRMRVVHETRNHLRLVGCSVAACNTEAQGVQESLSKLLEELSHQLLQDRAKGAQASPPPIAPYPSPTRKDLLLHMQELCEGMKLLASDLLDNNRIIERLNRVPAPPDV
Briefly: In-vitro IKKε kinase assay ([γ33]ATP filter-plate). Type of assay: biochemical. In a few lines:
(§1)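 Phosphorylation of casein or myelin basic protein was counted by P-81 filter capture after 30-45 min reactions stopped with phosphoric acid, with counts normalized to DMSO after background subtraction. ATP was twice Km: 60 μM for TBK1 and 32 μM for IKKε, plus [γ33]ATP. Sf9-expressed His-tag enzymes were used at normal/sensitized levels of 0.1/0.02 μg/ml (TBK1) and 0.1/0.015 μg/ml (IKKε).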

In the next assay the target is T2, TBK1 (Homo sapiens, UniProt Q9UHD2).
T2 construct: His-tag; made in house; host or cells: Sf9 insect cells
T2 sequence (Q9UHD2 1-729): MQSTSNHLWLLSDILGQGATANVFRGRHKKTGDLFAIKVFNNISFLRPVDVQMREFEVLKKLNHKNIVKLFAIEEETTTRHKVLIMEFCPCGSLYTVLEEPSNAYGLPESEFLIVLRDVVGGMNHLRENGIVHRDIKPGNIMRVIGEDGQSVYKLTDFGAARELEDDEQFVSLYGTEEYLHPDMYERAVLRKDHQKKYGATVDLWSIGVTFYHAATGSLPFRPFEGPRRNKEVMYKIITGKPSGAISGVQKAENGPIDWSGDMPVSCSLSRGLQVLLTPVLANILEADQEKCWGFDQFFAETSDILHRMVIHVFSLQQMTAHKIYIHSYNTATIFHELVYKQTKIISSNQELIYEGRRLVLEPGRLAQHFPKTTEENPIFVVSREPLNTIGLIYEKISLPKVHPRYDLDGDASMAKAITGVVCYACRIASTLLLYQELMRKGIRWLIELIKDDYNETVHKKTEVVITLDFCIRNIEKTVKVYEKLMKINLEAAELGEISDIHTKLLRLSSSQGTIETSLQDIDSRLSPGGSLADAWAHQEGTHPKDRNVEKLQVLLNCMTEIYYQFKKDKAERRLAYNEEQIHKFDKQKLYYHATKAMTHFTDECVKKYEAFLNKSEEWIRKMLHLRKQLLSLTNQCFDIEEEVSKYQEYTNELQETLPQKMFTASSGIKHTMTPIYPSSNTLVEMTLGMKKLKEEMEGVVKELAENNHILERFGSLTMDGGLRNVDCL
The experiment in a line: In-vitro TBK1 kinase assay ([γ33]ATP filter-plate). It counts as biochemical. In a few lines: as §1

In assay [1] the test system is IKKε-mediated phosphorylation of IRF3. Briefly: In-situ phosphorylation of IRF3 (pIRF3 Ser396 ELISA) in HEK293T cells cotransfected with IRF3 and IKKε. Type of assay: cell-based. Particulars: Homo sapiens, HEK-293T. In a few lines:
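Cells for the IRF7 Western blots carried IRF7 and TBK1 plasmids, were seeded at 150,000/well, exposed to compound overnight and probed for pSer477/Ser479 IRF7. The ELISA readout used IRF3 + IKKε-cotransfected HEK293T at 20,000/well with 20 h treatment, quantifying pSer396 IRF3 relative to DMSO, plus a parallel CellTiter-Glo viability check.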
Background: An ELISA detects its analyte on a solid surface through an enzyme-linked reagent.

The mark [2] stands for this setting: text bins, read-out: IC50 for inhibition of the kinase activity of IKKε.
Where [3] appears, read: text bins, read-out: IC50 for inhibition of the kinase activity of TBK1.
The mark [4] stands for this setting: HEK293T cells, 20 hours, text bins, read-out: IC50 for inhibition of the in-situ IKKε-mediated phosphorylation of IRF3.
[5] abbreviates: HEK293T cells in culture, Table 3, read-out: pIRF3 ELISA IC50.

In the case of `CCOC(=O)C(C)NCc1ccc(Nc2nccc(-c3ccc(OC4CCOCC4)c(C#N)c3)n2)cc1` (stereo not drawn) [compound 489, ethyl N-[4-({4-[3-cyano-4-(tetrahydro-2H-pyran-4-yloxy)phenyl]pyrimidin-2-yl}amino)benzyl] alaninate], the IC50 was under 5 nM on IKKε (setting [2]), under 10 nM at TBK1 (setting [3]) and 100 to 250 nM in assay [1] (setting [4]).
In the same order, the values of `CS(=O)(=O)NCc1ccc(Nc2nccc(-c3ccc(OC4CCOCC4)c(C#N)c3)n2)cc1` [compound 493, N-[4-({4-[3-cyano-4-(tetrahydro-2H-pyran-4-yloxy)phenyl]pyrimidin-2-yl}amino)benzyl] methanesulfonamide] are under 5 nM, under 10 nM and under 100 nM.
In the same order, the values of `C[C@H](O)C(=O)NCc1ccc(Nc2nccc(-c3ccc(OC4CCOCC4)c(C#N)c3)n2)cc1` [compound 494, (2S)-N-[4-({4-[3-cyano-4-(tetrahydro-2H-pyran-4-yloxy)phenyl]pyrimidin-2-yl}amino)benzyl]-2-hydroxypropanamide] are under 5 nM, under 10 nM and 100 to 250 nM.
Take `N#Cc1cc(-c2ccnc(Nc3ccc(CNC(=O)CO)cc3)n2)ccc1OC1CCOCC1` [compound 495, N-[4-({4-[3-cyano-4-(tetrahydro-2H-pyran-4-yloxy)phenyl]pyrimidin-2-yl}amino)benzyl]-2-hydroxyacetamide]: the values for the IC50 (at IKKε (setting [2]); at TBK1 (setting [3]); in assay [1] (setting [4])) were under 5 nM, under 10 nM and under 100 nM, respectively.
In the same order, the values of `N#Cc1cc(-c2ccnc(Nc3ccc(CN4CC(O)C4)cc3)n2)ccc1OC1CCOCC1` [compound 497, 5-[2-({4-[(3-hydroxyazetidin-1-yl)methyl]phenyl}amino)pyrimidin-4-yl]-2-(tetrahydro-2H-pyran-4-yloxy)benzonitrile] are under 5 nM, under 10 nM and under 100 nM.
In the same order, the values of `COc1cc(Nc2nccc(-c3ccc(OC4CCOCC4)c(C#N)c3)n2)ccc1CO` [compound 498, 5-(2-{[4-(hydroxymethyl)-3-methoxyphenyl]amino}pyrimidin-4-yl)-2-(tetrahydro-2H-pyran-4-yloxy)benzonitrile] are under 5 nM, under 10 nM and under 100 nM.
Consider `N#Cc1cc(-c2ccnc(Nc3ccc(CO)cc3)n2)ccc1OC1CCOCC1` [compound 499, 5-(2-{[4-(hydroxymethyl)phenyl]amino}pyrimidin-4-yl)-2-(tetrahydro-2H-pyran-4-yloxy)benzonitrile], for which the IC50 on IKKε (Table 3, read-out: IKKε IC50) was 5.1 nM; at IKKε (setting [2]), 5 to 50 nM; on TBK1 (Table 3, read-out: TBK1 IC50) it was 0.5 nM; at TBK1 (setting [3]), under 10 nM; in assay [1] (setting [5]) it was 142 nM; in assay [1] (setting [4]) it was 100 to 250 nM.
As for `N#Cc1cc(-c2ccnc(Nc3ccc(Cn4ccnc4)cc3)n2)ccc1OC1CCOCC1` [compound 500, 5-(2-{[4-(1H-imidazol-1-ylmethyl)phenyl]amino}pyrimidin-4-yl)-2-(tetrahydro-2H-pyran-4-yloxy)benzonitrile], the IC50 on IKKε (Table 3, read-out: IKKε IC50) is 2 nM; at IKKε (setting [2]), under 5 nM; at TBK1 (Table 3, read-out: TBK1 IC50) it was 0.3 nM; at TBK1 (setting [3]), under 10 nM; in assay [1] (setting [5]) it was 91.8 nM; in assay [1] (setting [4]) it was under 100 nM.
As to `COc1cc(Nc2nccc(-c3ccc(OC4CCOCC4)c(C#N)c3)n2)ccc1C(=O)N1CCN2CCCC2C1` (stereo not drawn) [compound 501, 5-(2-{[4-(hexahydropyrrolo[1,2-a]pyrazin-2(1H)-ylcarbonyl)-3-methoxyphenyl]amino}pyrimidin-4-yl)-2-(tetrahydro-2H-pyran-4-yloxy)benzonitrile], the IC50 at IKKε (Table 3, read-out: IKKε IC50) was 1.1 nM; at IKKε (setting [2]) it was under 5 nM; at TBK1 (Table 3, read-out: TBK1 IC50), 0.1 nM; on TBK1 (setting [3]) it was under 10 nM; in assay [1] (setting [5]) it was 25.9 nM; in assay [1] (setting [4]), under 100 nM.
With `COc1cc(Nc2nccc(-c3ccc(OC4CCOCC4)c(C#N)c3)n2)ccc1C(=O)N1CCC(N2CCCC2)C1` (stereo not drawn) [compound 502, 5-(2-{[4-(1,3′-bipyrrolidin-1′-ylcarbonyl)-3-methoxyphenyl]amino}pyrimidin-4-yl)-2-(tetrahydro-2H-pyran-4-yloxy)benzonitrile], the IC50 at IKKε (setting [2]) is under 5 nM; on TBK1 (setting [3]) it was under 10 nM; in assay [1] (setting [4]), under 100 nM.
As to `COc1cc(Nc2nccc(-c3ccc(OC4CCOCC4)c(C#N)c3)n2)ccc1C(=O)N1CCN(C(C)C)CC1` [compound 503, 5-{2-[(3-methoxy-4-{[4-(propan-2-yl)piperazin-1-yl]carbonyl}phenyl)amino]pyrimidin-4-yl}-2-(tetrahydro-2H-pyran-4-yloxy)benzonitrile], the IC50 on IKKε (setting [2]) was under 5 nM; on TBK1 (setting [3]), under 10 nM; in assay [1] (setting [4]), under 100 nM.
In the same order, the values of `COc1cc(Nc2nccc(-c3ccc(OC4CCOCC4)c(C#N)c3)n2)ccc1C(=O)NCCN1CCCC1` [compound 504, 4-({4-[3-cyano-4-(tetrahydro-2H-pyran-4-yloxy)phenyl]pyrimidin-2-yl}amino)-2-methoxy-N-[2-(pyrrolidin-1-yl)ethyl]benzamide] are under 5 nM, under 10 nM and under 100 nM.
In the same order, the values of `CCN(CC)CCNC(=O)c1ccc(Nc2nccc(-c3ccc(OC4CCOCC4)c(C#N)c3)n2)cc1OC` [compound 506, 4-({4-[3-cyano-4-(tetrahydro-2H-pyran-4-yloxy)phenyl]pyrimidin-2-yl}amino)-N-[2-(diethylamino)ethyl]-2-methoxybenzamide] are under 5 nM, under 10 nM and under 100 nM.
In the same order, the values of `COc1cc(Nc2nccc(-c3ccc(OC4CCOCC4)c(C#N)c3)n2)ccc1C(=O)N1CC(CN(C)C)C1` [compound 507, 5-(2-{[4-({3-[(dimethylamino)methyl]azetidin-1-yl}carbonyl)-3-methoxyphenyl]amino}pyrimidin-4-yl)-2-(tetrahydro-2H-pyran-4-yloxy)benzonitrile] are under 5 nM, under 10 nM and under 100 nM.
On to `CCN1CCN(Cc2ccc(Nc3nccc(-c4ccc(OC5CCN(C(=O)[C@H](C)O)CC5)c(C#N)c4)n3)cc2)CC1` [compound 508, 5-[2-({4-[(4-ethylpiperazin-1-yl)methyl]phenyl}amino)pyrimidin-4-yl]-2-({1-[(2S)-2-hydroxypropanoyl]piperidin-4-yl}oxy)benzonitrile], for which the IC50 on IKKε (setting [2]) was in the range of 5 to 50 nM; at TBK1 (setting [3]) it was 10 to 100 nM; in assay [1] (setting [4]), 100 to 250 nM.
In the case of `N#Cc1cc(-c2ccnc(Nc3ccc(CN4CCOCC4)cc3)n2)ccc1OC1CCOCC1` [compound 510, 5-(2-{[4-(morpholin-4-ylmethyl)phenyl]amino}pyrimidin-4-yl)-2-(tetrahydro-2H-pyran-4-yloxy)benzonitrile], the IC50 at IKKε (setting [2]) is under 5 nM; on TBK1 (setting [3]) it was under 10 nM; in assay [1] (setting [4]), under 100 nM.

For the origin of these results see US20150352108A1, “AMINO-PYRIMIDINE COMPOUNDS AS INHIBITORS OF TBK1 AND/OR IKK EPSILON” (Alzheimer's Institute of America, priority 2009, published 2015).
